Blank lines part the entries; values can stand above or below the molecule they belong to.
Tested on: 624824-186-R-J2-PDC multicell spheroids, viability
Experiment: Anticancer human tumor 624824-186-R-J2-PDC patient-derived colon adenocarcinoma cell line growth inhibition [PI3K]
Conditions: for IC50: curve of first compound; for viability, T/C: stronger effect = lower value
Text: Combinatorial screen of targeted agents with the PI3K inhibitors inavolisib, alpelisib, duvelisib, and copanlisib in multi-cell type tumor spheroids
A high-throughput screen of multi-cell type tumor spheroids was designed to identify active combinations of targeted small molecules and PI3K pathway inhibitors. Complex spheroids include a stromal component modeled by human endothelial cells (HUVEC) and fibroblasts modeled by human mesenchymal stem cells (MSCs). The concentration ranges selected for each drug and investigational agent were based upon clinically achievable concentrations if the clinical Cmax of the agent was known.
Compounds. The drugs and investigational agents: inavolisib (NSC800729), alpelisib (NSC765974), duvelisib (NSC772469), copanlisib (NSC816437), ipatasertib (NSC767898), afuresertib (NSC778305), talazoparib (NSC767125), sapanisertib (NSC764658), selumetinib (NSC741078), tovorafenib (DAY101, NSC766906), vemurafenib (NSC761431), ravoxertinib (NSC781343), sotorasib (NSC818433), MRTX1133 (NSC 836407), abemaciclib (NSC 768073), palbociclib (NSC758247), venetoclax (NSC 766270), SY5609 (NSC837396), enzalutamide (NSC755605), and darolutamide (NSC825331), were obtained from the National Cancer Institute (NCI) Developmental Therapeutics Program Chemical Repository. The FDA-approved anticancer drug set is available from the NCI Developmental Therapeutics Program. […] The stock solutions were prepared in dimethyl sulfoxide (DMSO, Sigma-Aldrich, St. Louis, MO, cat. D2650) at 800-fold the tested concentration and stored at -70 degrees C prior to their use. All drugs and investigational agents were tested over a range starting from a high concentration at or near the clinical Cmax and decreasing in half-log increments. If the clinical Cmax for an agent had not been determined, the highest concentration tested was 10 microM.
Cell Culture. All cells were maintained in an incubator at 37 degrees C and 5% CO2 with 95% humidity. The PDC lines were cultured according to standard operating procedures established by the NCI PDMR (https://pdmr.cancer.gov/sops/default.htm). All PDCs were thawed and cultured in Matrigel-coated flasks prepared with a working solution of 1X Ham's F-12 nutrient mix, without supplementation (Invitrogen, Waltham, MA, cat. 11765054), 100 U/mL penicillin-streptomycin (Invitrogen, cat. 15140122), and 2.5% Matrigel (Corning Inc., Corning, NY, cat. 354248) for the first three passages. The 354836-022-R-J1-PDC, 475296-252-R-J1-PDC, and 997726-040-R-J2-PDC lines were cultured in 6A media, which includes advanced DMEM/F-12 (Thermo Fisher Scientific, cat. 12634028), 10 mM HEPES (Thermo Fisher Scientific, cat. 15630080), 1X GlutaMAX supplement (Thermo Fisher Scientific, cat. 35050061), 0.1 mg/mL primocin (InvivoGen, San Diego, CA, cat. ant-pm-2), 10% defined fetal bovine serum, heat inactivated (HyClone Laboratories Inc., Logan, UT, cat. SH30070.03HI), 50% L-WRN conditioned media (ATCC, cat. CRL-3276), 1.25 mM N-Acetyl-L-cysteine (Sigma-Aldrich, cat. A9165), 10 mM nicotinamide (Sigma-Aldrich, cat. N0636), 1X B-27 supplement (Thermo Fisher Scientific, cat. 17504044), 1X N-2 supplement (Thermo Fisher Scientific, cat. 17502048), and 10 microM Y-27632 dihydrochloride (Tocris Bioscience, Bristol, United Kingdom, cat. 1254). The 624824-186-R-J2-PDC line was cultured in 6C/Colon 1B media, which includes all 6A media components plus 50 ng/mL human EGF recombinant protein (Thermo Fisher Scientific, cat. PHG0311). […]

[1] = second compound 0.00316 µM, first compound 0.0316 µM
[2] = second compound 0.00316 µM, first compound 0.1 µM
[3] = second compound 0.00316 µM, first compound 0.316 µM
[4] = second compound 0.00316 µM, first compound 1 µM
[5] = second compound 0.00316 µM, first compound 3.16 µM
[6] = second compound 0.00316 µM, first compound 10 µM
[7] = second compound 0.01 µM, first compound 0.0316 µM
[8] = second compound 0.01 µM, first compound 0.1 µM
[9] = second compound 0.01 µM, first compound 0.316 µM
[10] = second compound 0.01 µM, first compound 1 µM
[11] = second compound 0.01 µM, first compound 3.16 µM
[12] = second compound 0.01 µM, first compound 10 µM
[13] = second compound 0.0316 µM, first compound 0.0316 µM
[14] = second compound 0.0316 µM, first compound 0.1 µM
[15] = second compound 0.0316 µM, first compound 0.316 µM
[16] = second compound 0.0316 µM, first compound 1 µM
[17] = second compound 0.0316 µM, first compound 3.16 µM
[18] = second compound 0.0316 µM, first compound 10 µM
[19] = second compound 0.1 µM, first compound 0.0316 µM
[20] = second compound 0.1 µM, first compound 0.1 µM
[21] = second compound 0.1 µM, first compound 0.316 µM
[22] = second compound 0.1 µM, first compound 1 µM
[23] = second compound 0.1 µM, first compound 3.16 µM
[24] = second compound 0.1 µM, first compound 10 µM
[25] = second compound 0.316 µM, first compound 0.0316 µM
[26] = second compound 0.316 µM, first compound 0.1 µM
[27] = second compound 0.316 µM, first compound 0.316 µM
[28] = second compound 0.316 µM, first compound 1 µM
[29] = second compound 0.316 µM, first compound 3.16 µM
[30] = second compound 0.316 µM, first compound 10 µM
[31] = second compound 1 µM, first compound 0.0316 µM
[32] = second compound 1 µM, first compound 0.1 µM
[33] = second compound 1 µM, first compound 0.316 µM
[34] = second compound 1 µM, first compound 1 µM
[35] = second compound 1 µM, first compound 3.16 µM
[36] = second compound 1 µM, first compound 10 µM
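Also: spheroids exposed to agents for 7 days before viability read.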
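For viability, T/C in this document: 100% = DMSO vehicle treated spheroids.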

IC50 (second compound 0.00316 µM): 10 µM
IC50 (second compound 0.01 µM): 8.49 µM
IC50 (second compound 0.0316 µM): 7.85 µM
IC50 (second compound 0.1 µM): 6.22 µM
IC50 (second compound 0.316 µM): 4.65 µM
IC50 (second compound 1 µM): 3.58 µM
Compound: CCCS(=O)(=O)Nc1ccc(F)c(C(=O)c2c[nH]c3ncc(-c4ccc(Cl)cc4)cc23)c1F + CC(Nc1ccc2c(c1)OCCn1cc(N3C(=O)OCC3C(F)F)nc1-2)C(N)=O
viability, T/C [1]: 78.1%
viability, T/C [2]: 112%
viability, T/C [3]: 87.8%
viability, T/C [4]: 119%
viability, T/C [5]: 113%
viability, T/C [6]: 50%
viability, T/C [7]: 92.7%
viability, T/C [8]: 89.7%
viability, T/C [9]: 73.6%
viability, T/C [10]: 82.7%
viability, T/C [11]: 109%
viability, T/C [12]: 43.5%
viability, T/C [13]: 82.7%
viability, T/C [14]: 88.3%
viability, T/C [15]: 73.5%
viability, T/C [16]: 89.1%
viability, T/C [17]: 108%
viability, T/C [18]: 39.7%
viability, T/C [19]: 80%
viability, T/C [20]: 89.8%
viability, T/C [21]: 81.9%
viability, T/C [22]: 72.3%
viability, T/C [23]: 76.3%
viability, T/C [24]: 32.7%
viability, T/C [25]: 67.9%
viability, T/C [26]: 78.5%
viability, T/C [27]: 71.7%
viability, T/C [28]: 68%
viability, T/C [29]: 62.1%
viability, T/C [30]: 26.8%
viability, T/C [31]: 80.5%
viability, T/C [32]: 68.6%
viability, T/C [33]: 68.7%
viability, T/C [34]: 53.2%
viability, T/C [35]: 63.1%
viability, T/C [36]: 23.8%

IC50 (second compound 0.00316 µM): > 10 µM
IC50 (second compound 0.01 µM): > 10 µM
IC50 (second compound 0.0316 µM): > 10 µM
IC50 (second compound 0.1 µM): > 10 µM
IC50 (second compound 0.316 µM): > 10 µM
IC50 (second compound 1 µM): > 10 µM
Compound: CNC(=O)c1ccc(N2C(=S)N(c3ccc(C#N)c(C(F)(F)F)c3)C(=O)C2(C)C)cc1F + CC(Nc1ccc2c(c1)OCCn1cc(N3C(=O)OCC3C(F)F)nc1-2)C(N)=O
viability, T/C [1]: 90.2%
viability, T/C [2]: 90.7%
viability, T/C [3]: 107%
viability, T/C [4]: 96.3%
viability, T/C [5]: 134%
viability, T/C [6]: 121%
viability, T/C [7]: 88.3%
viability, T/C [8]: 107%
viability, T/C [9]: 88.5%
viability, T/C [10]: 86.4%
viability, T/C [11]: 124%
viability, T/C [12]: 109%
viability, T/C [13]: 75.5%
viability, T/C [14]: 77.3%
viability, T/C [15]: 89.5%
viability, T/C [16]: 80.5%
viability, T/C [17]: 102%
viability, T/C [18]: 98.3%
viability, T/C [19]: 72.3%
viability, T/C [20]: 66%
viability, T/C [21]: 84.8%
viability, T/C [22]: 67.8%
viability, T/C [23]: 78%
viability, T/C [24]: 102%
viability, T/C [25]: 78%
viability, T/C [26]: 72.3%
viability, T/C [27]: 88.5%
viability, T/C [28]: 76.9%
viability, T/C [29]: 104%
viability, T/C [30]: 98.7%
viability, T/C [31]: 69%
viability, T/C [32]: 78%
viability, T/C [33]: 89.3%
viability, T/C [34]: 87.5%
viability, T/C [35]: 95.2%
viability, T/C [36]: 93.7%

Reference: PubChem BioAssay AID1963975 (Molecular Pharmacology Branch, DTP, NCI, 2024)
